Source: patent US20090069320A1, “Substituted 4-Amino-Quinazoline Compounds with Metabotropic Glutamate Receptor Regulating Activity and Uses Thereof” (Gruenenthal GmbH, priority 2006, published 2009)

Biological target: T1, mGluR5 receptor (Sus scrofa, UniProt I3LUI7)
T1 construct: 450 μg of protein from brain homogenate with 5 nM ^3[H]-MPEP; from tissue; host or cells: pig brain halves without medulla, cerebellum and pons
Assay: [3H]-MPEP mGluR5 receptor binding assay (pig brain homogenate)
Conditions: 5 nM [3H]-MPEP; for % Inhibition of mGluR5 Receptor (pig) [^3H]-MPEP Bond at 10 μM / inhibition at 10 µM: 10 μM compound; for inhibition at 10 µM: read-out: % Inhibition of mGluR5 Receptor (pig) [^3H]-MPEP Bond at 10 μM; for IC50: read-out: IC50 mGluR5 Receptor (pig) [^3H]-MPEP Bond
Method: I. Method for Determining the Inhibition of the [^3H]-MPEP Bond in the mGluR5 Receptor Binding Assay
Pig brain homogenate is produced by homogenizing (Polytron PT 3000, Kinematica AG, 10 000 rpm for 90 seconds) pig brain halves without medulla, cerebellum and pons in pH 8.0 buffer (20 mM Hepes, Sigma, order no. H3375+1 complete tablet, 100 ml, Roche Diagnostics, order no. 1836145) in the ratio of 1:20 (brain weight/volume) and differential centrifuging at 900×g and 40 000×g. In incubation batches of 250 μl in 96-well microtitre plates 450 μg of protein from brain homogenate with 5 nM ^3[H]-MPEP (Tocris, order no. R1212) (MPEP=[…]) and the compounds to be examined (10 μM in test) in buffer (as above) are respectively incubated at room temperature for 60 minutes.
The batches are then filtered using a Brandel cell harvester (Brandel, Robotic 9600) on unifilter plates with fibreglass filter mats (Perkin Elmer, order no. 6005177) and then washed with buffer (as above) 3-times each with 250 μl per sample. The filter plates are then dried for 60 mins. at 55° C. Then, 30 μL of Ultima Gold™ scintillator (Packard BioScience, order no. 6013159) are added per well and after 3 hours the samples are measured on the β-counter (MicroBeta, Perkin Elmer). The non-specific binding is determined by adding 10 μM of MPEP (Tocris, order no. 1212).

T1 sequence (I3LUI7 19-1212): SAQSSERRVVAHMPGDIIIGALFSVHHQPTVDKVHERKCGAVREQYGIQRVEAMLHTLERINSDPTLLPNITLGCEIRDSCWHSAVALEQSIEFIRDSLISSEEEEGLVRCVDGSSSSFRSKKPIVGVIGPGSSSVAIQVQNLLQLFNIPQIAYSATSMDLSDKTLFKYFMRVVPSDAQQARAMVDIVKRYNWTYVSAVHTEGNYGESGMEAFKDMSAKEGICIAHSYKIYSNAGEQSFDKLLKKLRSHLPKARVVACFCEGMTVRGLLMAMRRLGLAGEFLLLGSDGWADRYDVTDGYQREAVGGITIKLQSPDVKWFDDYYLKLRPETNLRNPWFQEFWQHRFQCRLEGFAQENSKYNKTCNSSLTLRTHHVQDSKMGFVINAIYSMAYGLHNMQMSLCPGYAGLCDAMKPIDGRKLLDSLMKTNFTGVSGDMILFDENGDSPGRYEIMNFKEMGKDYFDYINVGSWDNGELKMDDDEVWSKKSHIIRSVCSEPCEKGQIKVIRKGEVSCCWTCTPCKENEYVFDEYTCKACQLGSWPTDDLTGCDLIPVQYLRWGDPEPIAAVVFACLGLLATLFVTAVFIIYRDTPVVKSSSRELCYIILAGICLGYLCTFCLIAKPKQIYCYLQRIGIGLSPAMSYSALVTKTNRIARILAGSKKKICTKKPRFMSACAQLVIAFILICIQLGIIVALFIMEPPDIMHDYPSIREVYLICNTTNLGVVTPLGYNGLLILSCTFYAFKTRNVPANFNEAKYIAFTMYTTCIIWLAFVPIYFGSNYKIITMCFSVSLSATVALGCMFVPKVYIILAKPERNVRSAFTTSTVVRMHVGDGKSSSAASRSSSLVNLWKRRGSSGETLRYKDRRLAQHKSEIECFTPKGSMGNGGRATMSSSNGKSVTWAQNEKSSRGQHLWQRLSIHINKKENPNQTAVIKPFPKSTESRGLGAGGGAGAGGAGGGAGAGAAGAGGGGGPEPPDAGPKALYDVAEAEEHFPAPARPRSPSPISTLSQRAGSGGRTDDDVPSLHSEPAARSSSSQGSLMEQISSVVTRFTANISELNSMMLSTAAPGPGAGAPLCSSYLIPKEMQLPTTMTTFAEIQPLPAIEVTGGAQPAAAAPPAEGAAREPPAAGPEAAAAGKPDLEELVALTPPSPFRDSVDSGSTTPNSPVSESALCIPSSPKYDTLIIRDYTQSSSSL

| inhibition at 10 µM | Structure (SMILES) | other results |
| --- | --- | --- |
|  | CC(C)(C)Nc1ncnc2ccc(-c3ccc(F)c(CN(C4CC4)S(=O)(=O)c4cccs4)c3)cc12 [Example 810, N-(5-(4-(tert-butylamino)quinazolin-6-yl)-2-fluorobenzyl)-N-cyclopropyl thiophene-2-sulfonamide] | % Inhibition of mGluR5 Receptor (pig) [^3H]-MPEP Bond at 10 μM: 45% |
|  | Cc1cc2ncnc(NC3CC3)c2cc1-c1cccc(CN(C2CC2)S(=O)(=O)c2c(F)c(F)c(F)c(F)c2F)c1 [Example 675, N-cyclopropyl-N-(3-(4-(cyclopropylamino)-7-methylquinazolin-6-yl)benzyl)-2,3,4,5,6-pentafluorobenzole sulfonamide] | % Inhibition of mGluR5 Receptor (pig) [^3H]-MPEP Bond at 10 μM: 48% |
| 63% | CC(C)S(=O)(=O)N(C)Cc1cc(-c2ccc3ncnc(NCc4ccccc4)c3c2)ccc1F [Example 484, N-(5-(4-(benzylamino)quinazolin-6-yl)-2-fluorobenzyl)-N-methylpropane-2-sulfonamide] |  |
|  | CC(C)(C)Nc1ncnc2ccc(-c3ccc(F)c(CNC4CC4)c3)cc12 [Example 322, N-tert-butyl-6-(3-((cyclopropylamino)methyl)-4-fluorophenyl)quinazoline-4-amine] | IC50: 2980 nM |
| 63% | CC(C)(C)Nc1ncnc2ccc(-c3ccc(F)c(CN(C(=O)c4ccc(C(F)(F)F)cc4F)C4CC4)c3)cc12 [Example 860, N-(5-(4-(tert-butylamino)quinazolin-6-yl)-2-fluorobenzyl)-N-cyclopropyl-2-fluoro-4-(trifluoromethyl)benzamide] |  |
| 86% | CC(C)(C)Nc1ncnc2ccc(-c3ccc(F)c(CN(C(=O)c4cccc(F)c4)C4CC4)c3)cc12 [Example 849, N-(5-(4-(tert-butylamino)quinazolin-6-yl)-2-fluorobenzyl)-N-cyclopropyl-3-fluorobenzamide] |  |
| 83% | Cc1cc2ncnc(NC3CC3)c2cc1-c1cccc(CN(C(=O)c2ccco2)C2CC2)c1 [Example 691, N-cyclopropyl-N-(3-(4-(cyclopropylamino)-7-methylquinazolin-6-yl)benzyl)furan-2-carboxamide] |  |
| 74% | Cc1cc2ncnc(NC3CC3)c2cc1-c1cccc(CN(C2CC2)S(=O)(=O)c2cccs2)c1 [Example 737, N-cyclopropyl-N-(3-(4-(cyclopropylamino)-7-methylquinazolin-6-yl)benzyl)thiophene-2-sulfonamide] |  |
|  | CC(C)(C)Nc1ncnc2ccc(-c3ccc(F)c(CN(C(=O)c4ccno4)C4CC4)c3)cc12 [Example 834, N-(5-(4-(tert-butylamino)quinazolin-6-yl)-2-fluorobenzyl)-N-cyclopropyl isoxazole-5-carboxamide] | % Inhibition of mGluR5 Receptor (pig) [^3H]-MPEP Bond at 10 μM: 42% |
| 42% | COCC(=O)N(C)Cc1cc(-c2ccc3ncnc(NCc4ccccc4)c3c2)ccc1F [Example 557, N-(5-(4-(benzylamino)quinazolin-6-yl)-2-fluorobenzyl)-2-methoxy-N-methylacetamide] |  |
|  | CC(=O)N(Cc1cccc(-c2ccc3ncnc(NC4CC4)c3c2)c1)C1CCC1 [Example 893, N-cyclobutyl-N-(3-(4-(cyclopropylamino)quinazolin-6-yl)benzyl)acetamide] | IC50: 3210 nM |
| 46% | CCCN(Cc1cccc(-c2ccc3ncnc(Nc4ccccc4)c3c2)c1)C(=O)c1ccc(O)nc1 [Example 111, 6-hydroxy-N-[3-(4-phenylamino-quinazolin-6-yl)-benzyl]-N-propyl-nicotinamide] |  |
| 84% | Cc1cc(C(=O)N(Cc2cc(-c3ccc4ncnc(NC(C)(C)C)c4c3)ccc2F)C2CC2)n(C)n1 [Example 831, N-(5-(4-(tert-butylamino)quinazolin-6-yl)-2-fluorobenzyl)-N-cyclopropyl-1,3-dimethyl-1H-pyrazole-5-carboxamide] |  |
|  | CS(=O)(=O)N(Cc1ccccc1)Cc1cccc(-c2ccc3ncnc(NC4CC4)c3c2)c1 [Example 222, N-benzyl-N-(3-(4-(cyclopropylamino)quinazolin-6-yl)benzyl)methane sulfonamide] | IC50: 4610 nM |
| 65% | O=C(c1ccccc1C(F)(F)F)N(Cc1cc(-c2ccc3ncnc(NC4CC4)c3c2)ccn1)C1CC1 [Example 749, N-cyclopropyl-N-((4-(4-(cyclopropylamino)quinazolin-6-yl)pyridin-2-yl)methyl)-2-(trifluoromethyl)benzamide] |  |
| 37% | CC(C)Nc1ncnc2ccc(-c3cccc(CN(Cc4ccccc4)C(=O)c4ccc(C#N)cc4)c3)cc12 [Example 44, N-benzyl-4-cyano-N-[3-(4-isopropylamino-quinazolin-6-yl)-benzyl]-benzamide] |  |

| inhibition at 10 µM | Structure (SMILES) | other results |
| --- | --- | --- |
| 58% | Cc1ccc(C(=O)N(Cc2cccc(-c3ccc4ncnc(N5CCCC5)c4c3)c2)C2CC2)cc1 [Example 134, N-cyclopropyl-4-methyl-N-[3-(4-pyrrolidin-1-yl-quinazolin-6-yl)-benzyl]-benzamide] |  |
|  | CC(C)(C)Nc1ncnc2ccc(-c3ccc(F)c(CN(C(=O)C(C)(C)C)C4CC4)c3)cc12 [Example 850, N-(5-(4-(tert-butylamino)quinazolin-6-yl)-2-fluorobenzyl)-N-cyclopropyl pivalamide] | % Inhibition of mGluR5 Receptor (pig) [^3H]-MPEP Bond at 10 μM: 83% |
| 91% | O=C(c1ccncc1)N(Cc1cccc(-c2cc(F)c3ncnc(NC4CC4)c3c2)c1)C1CC1 [Example 736, N-cyclopropyl-N-(3-(4-(cyclopropylamino)-8-fluoroquinazolin-6-yl)benzyl)isonicotinamide] |  |
| 49% | O=C1CCC(=O)N1Cc1cccc(-c2ccc3nc(NCc4ccccc4)nc(NC4CC4)c3c2)c1 [Example 291, 1-(3-(2-(benzylamino)-4-(cyclopropylamino)quinazolin-6-yl)benzyl)pyrrolidine-2,5-dione] |  |
|  | C=CCN(Cc1cccc(-c2ccc3ncnc(NC4CC4)c3c2)c1)C(C)=O [Example 886, N-allyl-N-(3-(4-(cyclopropylamino)quinazolin-6-yl)benzyl)acetamide] | IC50: 1980 nM |
| 96% | N#Cc1ccc(C(=O)N(Cc2cccc(-c3ccc4ncnc(NC5CC5)c4c3)c2)C2CC2)cc1 [Example 161, 4-cyano-N-cyclopropyl-N-[3-(4-cyclopropylamino-quinazolin-6-yl)-benzyl]-benzamide] |  |
|  | O=C(Cc1ccccc1)N(Cc1cccc(-c2ccc3ncnc(NC4CC4)c3c2)c1)C1CC1 [Example 264, N-cyclopropyl-N-[3-(4-cyclopropylamino-quinazolin-6-yl)-benzyl]-2-phenyl-acetamide] | IC50: 1520 nM |
| 47% | O=C(O)CCC(=O)NCc1cccc(-c2ccc3ncnc(NCC(=O)O)c3c2)c1 [Example 330, 4-(3-(4-(carboxymethylamino)quinazolin-6-yl)benzylamino)-4-oxobutyric acid] |  |
| 85% | Cc1nc(NC2CC2)c2cc(-c3ccc(F)c(CN(C(=O)c4ccc(F)cc4F)C4CC4)c3)ccc2n1 [Example 524, N-cyclopropyl-N-(5-(4-(cyclopropylamino)-2-methylquinazolin-6-yl)-2-fluorobenzyl)-2,4-difluorobenzamide] |  |
| 88% | O=C(c1ccc(F)cc1F)N(Cc1cc(-c2ccc3ncnc(NC4CC4)c3c2)ccc1Cl)C1CC1 [Example 792, N-(2-chloro-5-(4-(cyclopropylamino)quinazolin-6-yl)benzyl)-N-cyclopropyl-2,4-difluorobenzamide] |  |
| 46% | Cc1cccc(CNc2ncnc3ccc(-c4cccc(CN(C5CC5)S(C)(=O)=O)c4)cc23)c1 [Example 380, N-cyclopropyl-N-(3-(4-(3-methylbenzylamino)quinazolin-6-yl)benzyl)methane sulfonamide] |  |
| 62% | O=C(c1c(F)c(F)c(F)c(F)c1F)N(Cc1cccc(-c2cc(F)c3ncnc(NC4CC4)c3c2)c1)C1CC1 [Example 752, N-cyclopropyl-N-(3-(4-(cyclopropylamino)-8-fluoroquinazolin-6-yl)benzyl)-2,3,4,5,6-pentafluorobenzamide] |  |
| 92% | O=S(=O)(c1cccs1)N(Cc1cc(-c2ccc3ncnc(NC4CC4)c3c2)ccc1F)C1CC1 [Example 407, N-cyclopropyl-N-(5-(4-(cyclopropylamino)quinazolin-6-yl)-2-fluorobenzyl)thiophene-2-sulfonamide] |  |
| 90% | COc1ccc(C(=O)N(Cc2cc(-c3ccc4ncnc(NC5CC5)c4c3)ccc2F)C2CC2)cc1OC [Example 366, N-cyclopropyl-N-(5-(4-(cyclopropylamino)quinazolin-6-yl)-2-fluorobenzyl)-3,4-dimethoxybenzamide] |  |
|  | O=C(CCc1ccccc1)N(Cc1cccc(-c2ccc3ncnc(NC4CC4)c3c2)c1)C1CC1 [Example 263, N-cyclopropyl-N-[3-(4-cyclopropylamino-quinazolin-6-yl)-benzyl]-3-phenyl-propionamide] | IC50: 1700 nM |
| 44% | CCCN(Cc1cccc(-c2ccc3ncnc(Nc4ccccc4)c3c2)c1)C(=O)COc1ccccc1 [Example 90, 2-phenoxy-N-[3-(4-phenylamino-quinazolin-6-yl)-benzyl]-N-propyl-acetamide] |  |
